The target of experiment [1] is T1, BRAF V600E kinase (Homo sapiens, UniProt P15056, V600E).
T1 construct: purchased BPS Bioscience #48688
Nature of the experiment: BRAF (V600E) Kinase Assay Kit, Kinase-Glo luminescence. Type of experiment: biochemical. The following applies: 45 min at 30 °C. The method, then:
The activities of silybins and dehydrosilybins were tested using a commercial BRAF (V600E) (serine/threonine-protein kinase B-raf, V600E mutant) Kinase Assay Kit (#48688, BPS Bioscience, San Diego, CA, USA). Briefly, the BRAF (V600E) enzyme was incubated for 45 min at 30 °C with five different concentrations of each tested compound in logarithmic dilutions (1000, 100, 10, 1, and 0.1 µM). The reaction mixture was prepared following the instructions of the producer. The luminescence of the product of the enzyme activity was measured with the Kinase-Glo MAX Kit (#V6071, Promega, Madison, WI, USA) at a microplate luminometer (Synergy Multi-Mode Reader, BioTek, Winooski, VT, USA). Higher luminescent signal corresponded to […] enzyme activity. […] The reaction mixture without the test inhibitor represented the positive control, whereas the mixture without the test inhibitor and without the enzyme was used as blank.
The experiments for evaluation of the BRAF inhibition and cytotoxicity were performed in triplicate. The IC50 values were calculated by the BfROpenLab’s non-linear regression nodes in the KNIME analytics platform with the constant slope model.

The subject of experiment [2] is A-431 skin epidermoid carcinoma cells. The experiment can be described thus: MTT cytotoxicity assay, A-431. Type of experiment: cell-based. Particulars: Homo sapiens, 72 h, read-out: IC50 (95% Confidence Interval), A-431. As to the method: (§1) The cytotoxic activity of the tested compounds was evaluated on non-tumorigenic human keratinocytes (HaCaT, #300493), skin melanoma malignant cells with BRAF V600E mutation (A-375, #300110), and skin epidermoid carcinoma cells (A-431, #300112), all purchased from CLS Cell Lines Service (Eppelheim, Germany). The cell lines were maintained in DMEM (#DMEM-HPA, Capricorn®, Ebsdorfergrund, Germany) supplemented with 10% fetal bovine serum (#FBS-HI-12A, Capricorn®, Ebsdorfergrund, Germany) and 4 mM L-glutamine (#G7513, Merck (Sigma-Aldrich), Germany) and incubated under standard conditions (5% CO2, 37 °C, 90%-95% humidity). The experiments were performed between passages 4 and 15 whereby the cells were sub-cultured every 4th day by splitting 1:8, according to the protocol of the biobank. Briefly, the cell cultures were rinsed with PBS without calcium and magnesium (PBS, #D8537, Merck (Sigma-Aldrich), Germany) and incubated for 8-10 min with accutase (#ACC-1B, Capricorn®, Ebsdorfergrund, Germany) as a detachment agent. After centrifugation, the cells were counted with trypan blue (0.4% solution, #T8154, Merck (Sigma-Aldrich), Germany). The antiproliferative effects of SilA, SilB, […], and DHSilB were tested using the MTT-dye (3-(4,5-dimethylthiazol-2-yl)-2,5-diphenyltetrazolium bromide) assay according to ISO 10993-5-2009, Annex C [26]. Briefly, the cells were seeded in 96-well plates at a density of 0.1 × 10^6/mL, incubated for 24 h at 37 °C (5% CO2), and treated with ten concentrations of the compounds ranging from 3.9 to 1000 μM in twofold serial dilutions. After 72 h, the MTT-dye (#M5655-1G, Merck (Sigma-Aldrich), Germany) was added to each sample at a final concentration of 0.05 mg/mL and the plates were incubated for 2 h at 37 °C (5% CO2). The supernatant was aspirated, and the formazan crystals formed as a product of the enzymatic MTT reduction were dissolved in 2-propranol (#33539, Merck (Sigma-Aldrich), Germany) supplemented with 5% formic acid (#300415, […]/Neuber, Sofia, Bulgaria). The absorbance of the product was measured at 550 nm (reference filter 690 nm) on an ELISA Reader BioTek ELx800 (BioTek). The experiments for evaluation of the BRAF inhibition and cytotoxicity were performed in triplicate. The IC50 values were calculated by the BfROpenLab's non-linear regression nodes in the KNIME analytics platform with the constant slope model.

For experiment [3], the system named is HaCaT non-tumorigenic human keratinocytes. The experiment can be described thus: MTT cytotoxicity assay, HaCaT. Type of experiment: cell-based. The following applies: 72 h, read-out: IC50 (95% Confidence Interval), HaCaT. The method, then: as §1
Experiment [4] concerns A-375 skin melanoma malignant cells with BRAF V600E mutation. The experiment can be described thus: MTT cytotoxicity assay, A-375. Type of experiment: cell-based. Particulars: Homo sapiens, 72 h, read-out: IC50 (95% Confidence Interval), A-375. As to the method: as §1
A general note: Tetrazolium dyes change colour on reduction, which living cells bring about.

Experiment [5] relates to Hedgehog signaling pathway in NIH3T3 Shh-Light II cells. Nature of the experiment: HH-dependent (Gli-responsive) luciferase reporter assay. The format is cell-based. Particulars: SAG 200 nM, 48 h; for HH inhibitory activity (in words): maximum concentration of 30 μM. The method, then: The luciferase assay was carried out in NIH3T3 Shh-Light II cells, stably incorporating a Gli-responsive luciferase reporter and the pRL-TK Renilla, treated with SAG (SMO Agonist, 200 nM, Alexis Biochemicals Farmingdale, NY, USA) and the selected compounds for 48 h. Luciferases activities from P. pyralisand and R. reniformis were assayed with a dual-luciferase assay system, according to the manufacturer’s instructions (Biotium Inc., Hayward, CA, USA). The results were expressed as a P. pyralisand/R. reniformis luciferase ratio and represent the mean ± S.D. of three experiments, each performed in triplicate.
With respect to the SMO receptor, the HH inhibitory activity of the compounds, alone and in a racemate, was investigated in a luciferase reporter assay, which is widely used for characterizing HH inhibitors. The HH inhibitory activity of synthesized molecules was evaluated in NIH3T3 Shh Light II cells, stably incorporating a Gli-responsive firefly luciferase treated with the synthetic SMO agonist SAG [32], alone and in combination with the tested compounds.

Experiment [6] has as its target T2, Human Myc-DDK-tagged SMO in HEK293T cells (Homo sapiens, UniProt Q99835).
T2 construct: Myc; DDK (FLAG); expressed in transfected cells; host or cells: HEK293T
Nature of the experiment: BODIPY-Cyclopamine binding (displacement) assay. Particulars: BC 5 nM, 2 h at 37 °C. As to the method:
Human Myc-DDK-tagged SMO or empty vector was transfected in HEK293T cells. Cells were washed in phosphate-buffered saline (PBS) supplemented with 0.5% fetal bovine serum, fixed in 4% paraformaldehyde in PBS for 10 min, and incubated for 2 h at 37 °C, both in the same medium supplemented with BODIPY-Cyclopamine (BioVision Inc., San Francisco, CA, USA) (BC, 5 nM) and the studied compounds. The cells were permeabilized with Triton X100 (Sigma-Aldrich, St. Louis, MO, USA) 0.2%, and Hoechst reagent was used for cell nuclei staining. Data were expressed as a percentage of BC incorporation observed with BC alone.
To further investigate the binding properties of the selected compounds to the SMO receptor, we performed a displacement assay based on the use of BODIPY-Cyclopamine, which is known to interact with the binding site of SMO antagonists located within the heptahelical bundle of the receptor. To this aim, HEK293T cells were transiently transfected for expression of SMO and then incubated with BC in the presence or absence of increased amounts of DHSilA or DHSilAB.

A word on the IC50: it is the point on the concentration scale where inhibition reaches its midpoint.

T1 sequence (P15056 whole entry V600E): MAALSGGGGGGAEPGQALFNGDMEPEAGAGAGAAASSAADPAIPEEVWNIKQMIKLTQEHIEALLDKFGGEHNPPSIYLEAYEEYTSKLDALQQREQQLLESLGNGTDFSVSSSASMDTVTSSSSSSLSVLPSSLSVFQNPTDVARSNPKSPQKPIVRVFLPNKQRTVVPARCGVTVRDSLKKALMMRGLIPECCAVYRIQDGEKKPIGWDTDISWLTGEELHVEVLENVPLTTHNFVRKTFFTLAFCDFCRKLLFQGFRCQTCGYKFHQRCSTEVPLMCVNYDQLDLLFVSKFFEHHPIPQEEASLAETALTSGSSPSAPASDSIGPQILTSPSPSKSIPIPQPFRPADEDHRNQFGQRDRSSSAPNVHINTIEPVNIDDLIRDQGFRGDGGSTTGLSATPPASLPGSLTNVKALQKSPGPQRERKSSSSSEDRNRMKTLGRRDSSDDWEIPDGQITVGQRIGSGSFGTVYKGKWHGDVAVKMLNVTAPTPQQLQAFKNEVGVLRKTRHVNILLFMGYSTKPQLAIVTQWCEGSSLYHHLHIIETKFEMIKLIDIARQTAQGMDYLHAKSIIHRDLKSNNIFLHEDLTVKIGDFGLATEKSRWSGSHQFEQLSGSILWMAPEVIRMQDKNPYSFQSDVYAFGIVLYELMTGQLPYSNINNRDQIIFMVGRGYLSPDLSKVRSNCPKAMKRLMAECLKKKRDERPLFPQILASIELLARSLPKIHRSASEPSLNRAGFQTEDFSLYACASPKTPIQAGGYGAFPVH
T2 sequence (Q99835 28-787): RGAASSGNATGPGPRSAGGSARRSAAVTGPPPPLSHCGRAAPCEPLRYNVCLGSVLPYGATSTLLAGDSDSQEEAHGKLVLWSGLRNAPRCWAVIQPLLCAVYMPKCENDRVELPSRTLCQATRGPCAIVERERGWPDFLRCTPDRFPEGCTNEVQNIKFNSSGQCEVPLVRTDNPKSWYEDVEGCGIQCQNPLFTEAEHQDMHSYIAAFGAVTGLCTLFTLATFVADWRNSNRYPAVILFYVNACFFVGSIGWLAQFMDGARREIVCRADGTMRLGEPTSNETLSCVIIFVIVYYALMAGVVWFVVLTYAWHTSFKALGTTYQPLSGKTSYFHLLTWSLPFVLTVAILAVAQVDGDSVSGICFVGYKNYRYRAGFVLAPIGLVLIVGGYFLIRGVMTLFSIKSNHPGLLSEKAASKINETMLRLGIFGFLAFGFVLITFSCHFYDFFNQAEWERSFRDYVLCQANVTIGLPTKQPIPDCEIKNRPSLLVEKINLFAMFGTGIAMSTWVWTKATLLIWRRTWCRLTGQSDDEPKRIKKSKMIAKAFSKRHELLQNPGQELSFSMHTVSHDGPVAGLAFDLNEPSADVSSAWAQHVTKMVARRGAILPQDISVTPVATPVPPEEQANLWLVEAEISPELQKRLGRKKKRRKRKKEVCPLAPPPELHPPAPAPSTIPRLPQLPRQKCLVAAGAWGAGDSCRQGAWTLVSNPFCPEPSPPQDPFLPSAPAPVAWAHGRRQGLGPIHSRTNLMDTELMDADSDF

Take `COc1cc([C@@H]2Oc3cc(-c4oc5cc(O)cc(O)c5c(=O)c4O)ccc3O[C@H]2CO)ccc1O` [DHSilB, 2,3-dehydrosilybin B]: the half-inhibitory concentration (IC50) turned out to be 24.9 µM in experiment [1], 130 µM in experiment [2], 164 µM in experiment [3] and 86 µM in experiment [4]. Also, in experiment [5], the “HH inhibitory activity (in words)” value was “inactive”.

Regarding `COc1cc([C@@H]2Oc3cc([C@H]4Oc5cc(O)cc(O)c5C(=O)[C@@H]4O)ccc3O[C@H]2CO)ccc1O` [SilB, silybin B], the IC50 in experiment [1] was found to be 73.9 µM; in experiment [2], 166 µM; in experiment [3], 150 µM; in experiment [4], 120 µM. For the same compound, the “HH inhibitory activity (in words)” value in experiment [5] was “mild activity”.

Take `COc1cc([C@H]2Oc3cc([C@H]4Oc5cc(O)cc(O)c5C(=O)[C@@H]4O)ccc3O[C@@H]2CO)ccc1O` [SilA, silybin A]: the half-inhibitory concentration (IC50) is 104 µM in experiment [1], 126 µM in experiment [2], 120 µM in experiment [3] and 97 µM in experiment [4]. In experiment [5], the “HH inhibitory activity (in words)” value was “mild activity”.

Take `COc1cc([C@H]2Oc3cc(-c4oc5cc(O)cc(O)c5c(=O)c4O)ccc3O[C@@H]2CO)ccc1O` [DHSilA, 2,3-dehydrosilybin A]: the half-inhibitory concentration (IC50) in experiment [1] was 70.6 µM; in experiment [2], 97 µM; in experiment [3], 231 µM; in experiment [4], 83 µM; in experiment [5] (read-out: IC50, HH inhibitory activity) it was 5 to 10 µM. The “Inhibition of BODIPY-Cyclopamine (BC) binding to cells expressing SMO” value in experiment [6] is recorded as “inhibited BC binding to cells expressing SMO in a dose-dependent manner”. Moreover, the “HH inhibitory activity (in words)” value in experiment [5] is listed as “high activity”.
